In brackets after ≈: the same amount, converted by molar mass.
How the values were obtained:
Assay type in all cases: cell-based
[1] = test system: H. pylori strain NCTC 11916; assay: Agar plate dilution method, control antibiotic; details: Helicobacter pylori, NCTC11916, agar plate dilution method
[2] = test system: H. pylori strain NCTC 11637; assay: Agar plate dilution method, control antibiotic; details: Helicobacter pylori, NCTC11637, agar plate dilution method
[3] = test system: H. pylori strain NCTC 11637; assay: Disc diffusion method against H. pylori; details: Helicobacter pylori, NCTC11637, Disk
Protocol: (§1) Each sample was extracted using DMSO at 10 w/v % to make stock solution, further from which ten-fold serial dilution was made by DMSO, to prepare the test solution. H. pylori. strain NCTC 11637 and strain NCTC 11916 were cultured on blood agar which added 5% defibrinated horse blood to Brucella Agar (BBL) at 37° C. for 3 days, under microaerophile surroundings (N2 80%, CO2 15%, O2 5%). The strains were suspended in Brucella broth added 0.5 mg/ml of BSA fraction V (Sigma A-4503) to a concentration of 10^8 cfu/ml, to prepare inoculum organism liquid, and 0.1 ml of the liquid was smeared on BSA agar added the said BSA, after that anti-bacterial activity against H. pylori was determined by Disc method, as described below. Each test solution of 20 μl was made to absorb in a sensitivity disk (8 mm in diameter, Advantech, thin-model), placed on agar smeared with strains, cultured under microaerophile surroundings at 37° C. for 3 to 5 days. After that, growth-inhibitory zone around the disk showing more than 1 mm was regarded as positive.

[4] = test system: H. pylori strain NCTC 11916; assay: Disc diffusion method against H. pylori; details: Helicobacter pylori, NCTC11916, Disk
Protocol: as §1

MIC ([1]; BSA agar): 0.03 µg/mL (≈ 0.0409 µM)
MIC ([1]; blood agar): 0.05 µg/mL (≈ 0.0681 µM)
MIC ([2]; BSA agar): 0.03 µg/mL (≈ 0.0409 µM)
MIC ([2]; blood agar): 0.05 µg/mL (≈ 0.0681 µM)
MIC ([3]; BSA agar): 3.1 µg/mL (≈ 4.22 µM)
MIC ([3]; blood agar): 6.3 µg/mL (≈ 8.58 µM)
MIC ([4]; BSA agar): 1.6 µg/mL (≈ 2.18 µM)
MIC ([4]; blood agar): 6.3 µg/mL (≈ 8.58 µM)
SMILES: CC[C@H]1OC(=O)[C@H](C)[C@@H](O[C@H]2C[C@@](C)(OC)[C@@H](O)[C@H](C)O2)[C@H](C)[C@@H](O[C@@H]2O[C@H](C)C[C@H](N(C)C)[C@H]2O)[C@](C)(O)C[C@@H](C)C(=O)[C@H](C)[C@@H](O)[C@]1(C)O [Erythromycin]
